Measured values as given in PMC12530851, “Design, synthesis, and apoptotic antiproliferative activity of novel dihydropyrimidine-5-carbonitrile/1,2,4-oxadiazole hybrids as dual EGFR/VEGFR-2 inhibitors endowed with antioxidant activity” (RSC Advances, 2025).
Several values for one entry are separate records, joined by “and”; a condition that tells them apart may be missing. Identical values can stand only once.

Columns and labels:
[1] = system: Panc-1 (pancreatic cancer); experiment: Antiproliferative assay, Panc-1; assay type: cell-based; conditions: Homo sapiens; Panc-1 pancreatic cancer cells; read-out: Antiproliferative activity IC50 ± SEM, Panc-1
Description: The dose–response experiments established the IC50 values for the new compounds. The given findings were obtained from at least two distinct studies, each comprising three repeats per concentration. Appendix A (SI File) provides experimental details.[38,39]
The MTT assay[43] was utilized to assess the antiproliferative effects of compounds 10a–l on four human cancer cell lines: HT-29 (colon cancer), Panc-1 (pancreatic cancer), A-549 (lung cancer), and MCF-7 (breast cancer). […]
4.2.2. Assay for antiproliferative effect
To explore the antiproliferative potential of compounds propidium iodide fluorescence assay was performed using different cell lines such as Panc-1 (pancreas cancer cell line), MCF-7 (breast cancer cell line), HT-29 (colon cancer cell line) and A-549 (epithelial cancer cell line), respectively. To calculate the total nuclear DNA, a fluorescent dye (propidium iodide, PI) is used which can attach to the DNA, thus offering a quick and precise technique. PI cannot pass through the cell membrane and its signal intensity can be considered as directly proportional to quantity of cellular DNA. Cells whose cell membranes are damaged or have changed permeability are counted as dead ones. The assay was performed by seeding the cells of different cell lines at a density of 3000-7500 cells/well (in 200μl medium) in culture plates followed by incubation for 24h at 37 °C in humidified 5%CO2/95% air atmospheric conditions. The medium was removed; the compounds were added to the plates at 10 μM concentrations (in 0.1% DMSO) in triplicates, followed by incubation for 48h. DMSO (0.1%) was used as control. After incubation, medium was removed followed by the addition of PI (25 μl, 50μg/mL in water/medium) to each well of the plates. At - 80 °C, the plates were allowed to freeze for 24 h, followed by thawing at 25 °C. A fluorometer (Polar-Star BMG Tech) was used to record the readings at excitation and emission wavelengths of 530 and 620 nm for each well. The percentage cytotoxicity of compounds was calculated using […]
Where ATC= Absorbance of treated cells and AC= Absorbance of control. Erlotinib was used as positive control in the assay. […]

[2] = system: caspase-8; experiment: Caspase-8 activation assay in MCF-7 cells; assay type: cell-based, human; conditions: for Caspase-8 Fold change: vs untreated control
Description: (§1) Compounds10k and 10l were tested as caspases-3, 8, 9, Bax and p53 activators and as down-regulators of the anti-apoptotic protein Bcl2 against the MCF-7 breast cancer cell line.[41] Appendix A gives more details.
To elucidate the apoptotic processes of compounds 10k and 10l, whether via the intrinsic or extrinsic pathway, their impacts on caspase-8 and caspase-9 were evaluated. […] This signifies the activation of both intrinsic and extrinsic pathways (Table 5).
4.2.6. Caspase-8/9 activation assay
Cells were obtained from American Type Culture Collection, cells were grown in RPMI 1640 containing 10% fetal bovine serum at 37°C, stimulated with the compounds to be tested for caspase 8/9, and lysed with Cell Extraction Buffer. This lysate was diluted in Standard Diluent Buffer over the range of the assay and measured for human active caspase-8/9 content. (Cells are Plated in a density of 1.2 – 1.8 × 10,000 cells/well in a volume of 100µl complete growth medium + 100 ul of the tested compound per well in a 96-well plate for 24 hours before the enzyme assay). The absorbance of each microwell was read on a spectro-photometer at 450 nm. […]

[3] = system: Bcl-2; experiment: Bcl-2 level assay in MCF-7 cells; assay type: cell-based, human; conditions: for Bcl-2 Fold reduction: vs untreated control
Description: as §1
The Bcl-2 protein family, which includes pro-apoptotic proteins (Bax) and anti-apoptotic proteins (Bcl-2), primarily regulates apoptosis.[46] […] Consequently, we assessed the expression levels of Bcl-2 and Bax proteins in MCF-7 breast cancer cells treated with compounds 10k and 10l, Table 6. […]
4.2.8. Bcl-2 inhibition assay
Mix all the reagents thoroughly without foaming before use. Wash the microwells twice with approximately 300 μL Wash Buffer per well with thorough aspiration of microwell contents between washes. Take caution not to scratch the surface of the microwells. After the last wash, empty the wells and tap microwell strips on absorbent pad or paper towel to remove excess Wash Buffer. Use the microwell strips immediately after washing or place upside down on a wet absorbent paper for not longer than 15 minutes. […] Add 100 μL of Sample […]
Diluent in duplicate to all standard wells and to the blank wells. Prepare standard (1:2 dilution) in duplicate ranging from 32 ng/mL to 0.5 ng/mL. Add 100 μL of Sample Diluent, in duplicate, to the blank wells. Add 80 μL of Sample Diluent, in duplicate, to the sample wells. Add 20 μL of each Sample, in duplicate, to the designated wells. Add 50 μL of diluted biotin-conjugate to all wells, including the blank wells. Cover with a plate cover and incubate at room temperature, on a microplate shaker at 100 rpm if available, for 2 hours. Remove plate cover and empty the wells.
Wash microwell strips 3 times as described in step 2. Add 100 μL of diluted Streptavidin-HRP to all wells, including the blank wells. Cover with a plate cover and incubate at room temperature, on a microplate shaker at 100 rpm if available, for 1 hour. Remove the plate cover and empty the wells. Wash microwell strips 3 times as described in step 2. Proceed to the next step. Pipette 100 μl of mixed TMB Substrate Solution to all wells, including the blanks. […] The point, at which the substrate reaction is stopped, is often determined by the ELISA reader. Many ELISA readers record absorbance only up to 2.0
O.D. Therefore, the color development within individual microwells must be watched by the person running the assay and the substrate reaction stopped before positive wells are no longer properly detectable. […] Results must be read immediately after the Stop Solution is added or within one hour if the microwell strips are stored at 2 - 8°C in the dark. Read the absorbance of each microwell on a spectrophotometer using 450 nm as the primary wavelength.

[4] = system: caspase-3; experiment: Caspase-3 activation assay in MCF-7 cells; assay type: cell-based, human; conditions: for Caspase-3 Fold change: vs untreated control

## COc1ccc(-c2nc(SCc3nc(-c4ccc(Cl)cc4)no3)[nH]c(=O)c2C#N)cc1 [Compound 10k, 2-(((3-(4-Chlorophenyl)-1,2,4-oxadiazol-5-yl)methyl)thio)-4-(4-methoxyphenyl)-6-oxo-1,6-dihydropyrimidine-5-carbonitrile]
[1]
  IC50: 22 ± 1 nM
[2]
  Caspase-8 Conc: 2.50 ± 0.20 ng/mL
  Caspase-8 Fold change: 25 fold and 25.00 fold
[3]
  Bcl-2: 1.20 ± 0.001 ng/mL
  Bcl-2 Fold reduction: 4 fold
[4]
  Caspase-3 Conc: 590 ± 5 pg/mL
  Caspase-3 Fold change: 9 fold and 9.00 fold

## COc1ccc(-c2noc(CSc3nc(-c4ccc(OC)cc4)c(C#N)c(=O)[nH]3)n2)cc1 [Compound 10l, 2-(((3-(4-Methoxyphenyl)-1,2,4-oxadiazol-5-yl)methyl)thio)-4-(4-methoxyphenyl)-6-oxo-1,6-dihydropyrimidine-5-carbonitrile]
[1]
  IC50: 26 ± 1 nM
[2]
  Caspase-8 Conc: 2.00 ± 0.10 ng/mL
  Caspase-8 Fold change: 20 fold and 20.00 fold
[3]
  Bcl-2: 1.50 ± 0.001 ng/mL
  Bcl-2 Fold reduction: 3 fold
[4]
  Caspase-3 Conc: 530 ± 4 pg/mL
  Caspase-3 Fold change: 8 fold and 8.00 fold
